Assay results from ChEMBL document CHEMBL1201862, “PubChem BioAssay data set” (2004).
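Protocol summary: plate cells (96-well), add compound at 5 concentrations, incubate 48 h, interpolate endpoints linearly. GI50 is the concentration that inhibits growth by half.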 Calls of active or inactive are those of the source. Rule as the data show it: active = GI50 up to about 1.1 µM and inactive = higher.

Key:
Experiment in all cases: NCI-60 cell line screen, 48 h
[1] = test system: NCI/ADR-RES
[2] = test system: U-251
[3] = test system: HOP-62
[4] = test system: HCT-116
[5] = test system: T47D
[6] = test system: LOX IMVI
[7] = test system: SF-539
[8] = test system: HT-29
[9] = test system: UACC-62
[10] = test system: M14
[11] = test system: SN12C
[12] = test system: KM12
[13] = test system: CAKI-1
[14] = test system: MDA-MB-231
[15] = test system: MCF7
[16] = test system: SW-620
[17] = test system: 786-0
[18] = test system: HOP-92
[19] = test system: DU-145
[20] = test system: COLO 205
[21] = test system: HCC 2998
[22] = test system: BT-549
[23] = test system: OVCAR-8
[24] = test system: EKVX
[25] = test system: MDA-N
[26] = test system: SNB-19
[27] = test system: SK-MEL-5
[28] = test system: PC-3
[29] = test system: MDA-MB-435
[30] = test system: K562
[31] = test system: OVCAR-5
[32] = test system: A549
[33] = test system: SK-OV-3
[34] = test system: TK-10
[35] = test system: SK-MEL-28
[36] = test system: UACC-257
[37] = test system: NCI-H226
[38] = test system: A498
[39] = test system: ACHN
[40] = test system: NCI-H522
[41] = test system: HCT-15
[42] = test system: CCRF-CEM
[43] = test system: SF-295
[44] = test system: OVCAR-3
[45] = test system: SF-268
[46] = test system: RXF 393
[47] = test system: RPMI-8226
[48] = test system: IGROV-1
[49] = test system: OVCAR-4
[50] = test system: SR
[51] = test system: MOLT-4
[52] = test system: UO-31
[53] = test system: NCI-H23
[54] = test system: SK-MEL-2
[55] = test system: Malme-3M
[56] = test system: Hs-578T
[57] = test system: HL-60
[58] = test system: NCI-H460

O=c1c2ccc(Cl)cc2oc2c(CNc3ccc(S(=O)(=O)Nc4nccs4)cc3)cccc12
GI50 [1]: > 100 µM (inactive)
GI50 [2]: > 100 µM (inactive)
GI50 [3]: > 100 µM (inactive)
GI50 [4]: > 100 µM (inactive)
GI50 [5]: > 100 µM (inactive)
GI50 [6]: > 100 µM (inactive)
GI50 [7]: 99.1 µM (inactive)
GI50 [8]: > 100 µM (inactive)
GI50 [9]: > 100 µM (inactive)
GI50 [10]: > 100 µM (inactive)
GI50 [11]: > 100 µM (inactive)
GI50 [12]: > 100 µM (inactive)
GI50 [13]: 0.951 µM (active)
GI50 [14]: 98.6 µM (inactive)
GI50 [15]: > 100 µM (inactive)
GI50 [16]: > 100 µM (inactive)
GI50 [17]: > 100 µM (inactive)
GI50 [18]: 31.2 µM (inactive)
GI50 [19]: > 100 µM (inactive)
GI50 [20]: > 100 µM (inactive)
GI50 [21]: > 100 µM (inactive)
GI50 [22]: > 100 µM (inactive)
GI50 [23]: > 100 µM (inactive)
GI50 [24]: > 100 µM (inactive)
GI50 [25]: > 100 µM (inactive)
GI50 [26]: > 100 µM (inactive)
GI50 [27]: > 100 µM (inactive)
GI50 [28]: > 100 µM (inactive)
GI50 [29]: > 100 µM (inactive)
GI50 [30]: > 100 µM (inactive)
GI50 [31]: > 100 µM (inactive)
GI50 [32]: > 100 µM (inactive)
GI50 [33]: > 100 µM (inactive)
GI50 [34]: > 100 µM (inactive)
GI50 [35]: > 100 µM (inactive)
GI50 [36]: > 100 µM (inactive)
GI50 [37]: > 100 µM (inactive)
GI50 [38]: > 100 µM (inactive)
GI50 [39]: > 100 µM (inactive)
GI50 [40]: > 100 µM (inactive)
GI50 [41]: > 100 µM
GI50 [42]: 91.6 µM (inactive)
GI50 [43]: > 100 µM (inactive)
GI50 [44]: > 100 µM (inactive)
GI50 [45]: > 100 µM (inactive)
GI50 [46]: > 100 µM (inactive)
GI50 [47]: > 100 µM (inactive)
GI50 [48]: > 100 µM (inactive)
GI50 [49]: > 100 µM (inactive)
GI50 [50]: > 100 µM (inactive)
GI50 [51]: > 100 µM (inactive)
GI50 [52]: > 100 µM (inactive)
GI50 [53]: > 100 µM (inactive)
GI50 [54]: > 100 µM (inactive)
GI50 [55]: > 100 µM (inactive)

CCCNC(=O)Cn1c2c(c3ccccc31)CCCC2
GI50 [1]: 50.9 µM (inactive)
GI50 [3]: 78 µM (inactive)
GI50 [4]: 29.2 µM (inactive)
GI50 [6]: > 100 µM (inactive)
GI50 [7]: 37.1 µM (inactive)
GI50 [8]: > 100 µM (inactive)
GI50 [9]: 45.4 µM (inactive)
GI50 [10]: > 100 µM (inactive)
GI50 [11]: 65.2 µM (inactive)
GI50 [56]: 23.1 µM (inactive)
GI50 [13]: 77.1 µM (inactive)
GI50 [15]: > 100 µM (inactive)
GI50 [16]: 55.6 µM (inactive)
GI50 [17]: > 100 µM (inactive)
GI50 [18]: > 100 µM (inactive)
GI50 [20]: > 100 µM (inactive)
GI50 [21]: 75.5 µM (inactive)
GI50 [22]: 87.7 µM (inactive)
GI50 [23]: > 100 µM (inactive)
GI50 [24]: 56.6 µM (inactive)
GI50 [25]: 68.7 µM (inactive)
GI50 [26]: 36.7 µM (inactive)
GI50 [27]: 33.7 µM (inactive)
GI50 [28]: 63.8 µM (inactive)
GI50 [29]: > 100 µM (inactive)
GI50 [30]: 73.1 µM (inactive)
GI50 [57]: 29.6 µM (inactive)
GI50 [31]: > 100 µM (inactive)
GI50 [32]: 53.8 µM (inactive)
GI50 [33]: 94.8 µM (inactive)
GI50 [34]: > 100 µM (inactive)
GI50 [35]: 88.9 µM (inactive)
GI50 [36]: 94 µM (inactive)
GI50 [38]: 27.8 µM (inactive)
GI50 [39]: 34.9 µM (inactive)
GI50 [41]: 45.2 µM
GI50 [42]: > 100 µM (inactive)
GI50 [43]: 38.5 µM (inactive)
GI50 [44]: 36.9 µM (inactive)
GI50 [45]: > 100 µM (inactive)
GI50 [47]: 40.7 µM (inactive)
GI50 [48]: > 100 µM (inactive)
GI50 [58]: 58.2 µM (inactive)
GI50 [49]: 45.8 µM (inactive)
GI50 [50]: 42.8 µM (inactive)
GI50 [51]: 43.6 µM (inactive)
GI50 [52]: 20 µM (inactive)
GI50 [53]: 72.3 µM (inactive)
GI50 [54]: > 100 µM (inactive)
GI50 [55]: > 100 µM (inactive)

CSc1ccc2c(cc1=O)[C@@H](NC(=O)c1ccc(N)cc1)CCc1cc(O)c(O)c(O)c1-2
GI50 [1]: 18.6 µM (inactive)
GI50 [2]: 19.4 µM (inactive)
GI50 [3]: 14.4 µM (inactive)
GI50 [5]: 44 µM (inactive)
GI50 [11]: 29.5 µM (inactive)
GI50 [17]: 12.8 µM (inactive)
GI50 [18]: 29.4 µM (inactive)
GI50 [19]: > 75 µM (inactive)
GI50 [21]: 13.6 µM (inactive)
GI50 [22]: 16.9 µM (inactive)
GI50 [23]: 26.5 µM (inactive)
GI50 [24]: 36.4 µM (inactive)
GI50 [26]: 21.8 µM (inactive)
GI50 [29]: 14.5 µM (inactive)
GI50 [30]: 12.1 µM (inactive)
GI50 [31]: 22 µM (inactive)
GI50 [32]: 19.1 µM (inactive)
GI50 [35]: > 75 µM (inactive)
GI50 [36]: 20.8 µM (inactive)
GI50 [38]: 73.8 µM (inactive)
GI50 [39]: 17 µM (inactive)
GI50 [40]: 13.8 µM (inactive)
GI50 [41]: 11.2 µM
GI50 [43]: 17.2 µM (inactive)
GI50 [45]: 14.3 µM (inactive)
GI50 [46]: > 75 µM (inactive)
GI50 [47]: 35 µM (inactive)
GI50 [48]: 20.4 µM (inactive)
GI50 [58]: 15 µM (inactive)
GI50 [49]: 16.1 µM (inactive)
GI50 [51]: 33.1 µM (inactive)
GI50 [52]: 20.3 µM (inactive)
